According to patent US9452988B2, “Bendamustine derivatives and methods of using same” (Ignyta, Inc., priority 2012, dated 2016):

Assays:
[1] = Rat plasma pharmacokinetics, solution formulations of C16, cyclohexyl and 5-decanyl esters, 3 mg-eq/kg i.v.; type: in vivo; settings: solution formulation 3 mg-eq/kg i.v.
Method: (§2) Plasma and other tissues were prepared for high performance liquid chromatography (HPLC)/mass spectrometric analysis according to a standard protocol following protein precipitation with acetonitrile containing an internal standard. The samples were then analyzed for both bendamustine HCl and bendamustine esters of the invention and alprenolol (internal standard) via HPLC coupled with tandem mass spectrometry. Tissue samples were homogenized in sodium phosphate buffer and the value obtained from the assay was multiplied by 3 to correct for dilution during processing.
(§3) Adult animals (Charles River, Kingston, N.Y.; n=3 or 4/time point) were used in all experiments. The mice or rats were not fasted overnight prior to IV dose administration via the lateral tail vein. IV doses were administered in a fixed dose volume of 100 μL in mice or a dose volume of 1 mL/kg in rats. The mice were sacrificed by decapitation and trunk blood was collected into heparinized tubes at the sampling times stipulated. For blood collection, each rat (unanesthetized) was placed in a clear Plexiglas® restraining tube, and blood samples (approximately 0.25 mL) were drawn from a lateral tail vein into heparinized collection tubes at the sampling times stipulated. (Note: No pre-dose samples were obtained.) The exception to this procedure was the last sampling time in which the rats were sacrificed by decapitation and trunk blood was obtained rather than blood via a tail vein. The blood samples were placed on wet ice until centrifuged to separate plasma. The plasma fraction was transferred into clean, dry tubes, frozen on dry ice and stored at approximately −20° C. pending analysis. Whole brains and other highly perfused organs (liver, lung, spleen, kidney and heart) were rapidly removed at the predetermined time points and frozen on dry ice. All tissue samples were also stored at approximately −20° C. pending analysis.
(§4) The plasma concentration data for all mice and rats were entered into Excel spreadsheets in preparation for pharmacokinetic analysis. Mean pharmacokinetic parameters were estimated by non-compartmental analysis (Gibaldi and Perrier 1982) of the plasma concentration versus time data using WinNonlin software (Professional Version 4.1, Pharsight Corporation, Palo Alto, Calif.). The terminal rate constant for elimination from plasma (β) was estimated by linear regression of the terminal portion of the semi-logarithmic plasma concentration versus time curve. The apparent terminal half-life (t1/2) was calculated as 0.693 divided by β. The area under the plasma concentration versus time curve from time zero to the time of the last measurable concentration (AUC0-t) after a single dose was determined by the linear trapezoidal rule. The area from zero to infinity (AUC0-∞) was calculated as the sum of AUC0-t and the area extrapolated from the last measurable concentration to infinity (Clast/β). Concentrations pre-dose were all assumed to be zero for the purpose of calculation of the AUC. Any concentration that was below the limit of quantification (BLQ) after the last quantifiable sampling time was considered to be an empty value for the purpose of calculation of the AUC; it was treated as zero for the calculation of the mean concentration for a given sampling time.

[2] = Rat plasma, blood and organ pharmacokinetics after bendamustine C12 ester 30 mg/kg i.v.; type: in vivo; settings: 1 mL/kg
Method: as §2, §3, §4

H-460 (NSCLC) = assay: MTS cell assay, H-460; type: cell-based, Human
Method: (§1) Human carcinoma cells (2,000 cells/well) were incubated with the desired concentration of the test molecule (0-200 μM) for 72 hours. The cells were then incubated with MTS solution (Promega) for 1-2 hours, and the compounds effects on cell proliferation was determined by measuring the absorbance at 490 nm. Cell growth was expressed as a percent of the appropriate control (placebo). […] All data reported was the mean±SE of three independent experiments.

MB-231 (HBC) = assay: MTS cell assay, MB-231; type: cell-based, Human; settings: 72 hours
Method: Charles River Labs athymic nude mice bearing MDA-MB-231 breast carcinoma cell line subcutaneous xenografts (5×10^6 cells in matrigel) were sacrificed to make a tumor isolate. Using sterile instruments and working aseptically, the tumors were removed from the euthanized animal. The tumor was placed in a 50 mL sterile conical tube and 5 mL of trypsin was added. The tumor was cut into small pieces and incubated at 37° C. for 30 minutes. After incubation, a cell strainer was placed on a second, sterile, 50 mL conical tube and the contents of the first tube were placed in the cell strainer. The tissue was forced through the filter using the flat end of a syringe plunger. The cell strainer was washed with 5 mLs of media containing FBS. The cells were spun down and the supernatant was discarded. The cells were resuspended in 20 mLs of complete media containing P/S and placed in a 75 cm flask.
as §1

[3] = C12 ester Nanoparticle Formulation
[4] = Homo sapiens, NCI-H460, 72 hours

CCCCCC(CCCC)OC(=O)CCCc1nc2cc(N(CCCl)CCCl)ccc2n1C (stereo not drawn) [5-decanyl ester, 4-{5-[Bis-(chloroethyl)-amino]-1-methyl-1H-benzimidazol-2-yl}butyric acid 5-decyl ester]
Plasma levels of Ester [1]: All < MQL

CCCCCCCCCCCCOC(=O)CCCc1nc2cc(N(CCCl)CCCl)ccc2n1C [Bendamustine C12 Ester, 4-{5-[Bis-(chloroethyl)-amino]-1-methyl-1H-benzimidazol-2-yl}butyric aid dodecyl ester]
AUC0-t of C12 Ester, Blood ([2]; C12 ester Liquid Formulation): 4424 ng·h/mL | AUC0-t of C12 Ester, Brain ([2]; C12 ester Liquid Formulation): 299 ng·h/mL | AUC0-t of C12 Ester, Kidney ([2]; C12 ester Liquid Formulation): 2383 ng·h/mL | AUC0-t of C12 Ester, Liver ([2]; C12 ester Liquid Formulation): 2564 ng·h/mL | AUC0-t of C12 Ester, Lung ([2]; C12 ester Liquid Formulation): 12619 ng·h/mL | AUC0-t of C12 Ester, Spleen ([2]; C12 ester Liquid Formulation): 25874 ng·h/mL | AUC0-∞ of C12 Ester, Kidney ([2]; C12 ester Liquid Formulation): 2605 ng·h/mL | AUC0-∞ of C12 Ester, Liver ([2]; C12 ester Liquid Formulation): 2586 ng·h/mL | AUC0-∞ of C12 Ester, Lung ([2]; C12 ester Liquid Formulation): 13246 ng·h/mL | AUC0-∞ of C12 Ester, Spleen ([2]; C12 ester Liquid Formulation): 25927 ng·h/mL | t1/2 of C12 Ester, Kidney ([2]; C12 ester Liquid Formulation): 5.3 h | t1/2 of C12 Ester, Liver ([2]; C12 ester Liquid Formulation): 0.8 h | t1/2 of C12 Ester, Lung ([2]; C12 ester Liquid Formulation): 7.6 h | t1/2 of C12 Ester, Spleen ([2]; C12 ester Liquid Formulation): 3.1 h | AUC0-t of C12 Ester, Blood [2, 3]: 951 ng·h/mL | AUC0-t of C12 Ester, Brain [2, 3]: 149 ng·h/mL | AUC0-t of C12 Ester, Kidney [2, 3]: 1766 ng·h/mL | AUC0-t of C12 Ester, Liver [2, 3]: 13355 ng·h/mL | AUC0-t of C12 Ester, Lung [2, 3]: 28327 ng·h/mL | AUC0-t of C12 Ester, Spleen [2, 3]: 13111 ng·h/mL | AUC0-∞ of C12 Ester, Kidney [2, 3]: 1802 ng·h/mL | AUC0-∞ of C12 Ester, Liver [2, 3]: 13586 ng·h/mL | AUC0-∞ of C12 Ester, Lung [2, 3]: 32297 ng·h/mL | AUC0-∞ of C12 Ester, Spleen [2, 3]: 13578 ng·h/mL | t1/2 of C12 Ester, Kidney [2, 3]: 4.9 h | t1/2 of C12 Ester, Liver [2, 3]: 4.5 h | t1/2 of C12 Ester, Lung [2, 3]: 8.5 h | t1/2 of C12 Ester, Spleen [2, 3]: 5.4 h | IC50 (H-460 (NSCLC); 72 hours): 28.8 µM | IC50 (MB-231 (HBC)): 33.3 µM

CCCCCCCCCCCCCCCCOC(=O)CCCc1nc2cc(N(CCCl)CCCl)ccc2n1C [C16 bendamustine ester, 4-{5-[Bis-(chloroethyl)-amino]-1-methyl-1H-benzimidazol-2-yl}butyric acid hexadecyl ester]
IC50 (H-460 (NSCLC); [4]): 77.8 µM | AUC(0-t) ([1]; plasma, iv, 3 mg/kg, Mean n = 3, read-out: AUC0-t of Ester in plasma): 1210 ng·h/mL | AUC(0-inf) ([1]; plasma, iv, 3 mg/kg, Mean n = 3, read-out: AUC0-∞ of Ester in plasma): 1210 ng·h/mL | clearance ([1]; plasma, iv, 3 mg/kg, Mean n = 3, read-out: CL of Ester): 41 mL/min/kg | Vd ([1]; plasma, iv, 3 mg/kg, Mean n = 3, read-out: Vd of Ester): 1 L/kg | half-life ([1]; plasma, iv, 3 mg/kg, Mean n = 3, read-out: t1/2 of Ester in plasma (converted)): 16.8 min | IC50 (MB-231 (HBC); Homo sapiens): > 200 µM

Cn1c(CCCC(=O)OC2CCCCC2)nc2cc(N(CCCl)CCCl)ccc21 [Cy-hexyl bendamustine ester, 4-{5-[Bis-(chloroethyl)-amino]-1-methyl-1H-benzimidazol-2-yl}butyric acid cyclohexyl ester]
Plasma levels of Ester [1]: All < MQL

CCCCOC(=O)CCCc1nc2cc(N(CCCl)CCCl)ccc2n1C [—C4H9, 4-{5-[Bis-(chloroethyl)-amino]-1-methyl-1H-benzimidazol-2-yl}butyric acid butyl ester]
IC50 (H-460 (NSCLC); [4]): 15.7 µM | IC50 (MB-231 (HBC); Homo sapiens): 13.3 µM

CCCCCCOC(=O)CCCc1nc2cc(N(CCCl)CCCl)ccc2n1C [—C6H13, 4-{5-[Bis-(chloroethyl)-amino]-1-methyl-1H-benzimidazol-2-yl}butyric acid hexyl ester]
IC50 (H-460 (NSCLC); [4]): 7.4 µM | IC50 (MB-231 (HBC); Homo sapiens): 43.7 µM

CCCCCCCCOC(=O)CCCc1nc2cc(N(CCCl)CCCl)ccc2n1C [—C8H17, 4-{5-[Bis-(chloroethyl)-amino]-1-methyl-1H-benzimidazol-2-yl}butyric aid octyl ester]
IC50 (H-460 (NSCLC); 72 hours): 49 µM

CCCCCCCCCCOC(=O)CCCc1nc2cc(N(CCCl)CCCl)ccc2n1C [—C10H21, 4-{5-[Bis-(chloroethyl)-amino]-1-methyl-1H-benzimidazol-2-yl}butyric acid decyl ester]
IC50 (H-460 (NSCLC); [4]): 23.8 µM | IC50 (MB-231 (HBC); Homo sapiens): 38.9 µM

CCCCCCCCCCCCCCCOC(=O)CCCc1nc2cc(N(CCCl)CCCl)ccc2n1C [—C15H31, 4-{5-[Bis-(chloroethyl)-amino]-1-methyl-1H-benzimidazol-2-yl}butyric acid pentadecyl ester]
IC50 (H-460 (NSCLC); [4]): > 200 µM | IC50 (MB-231 (HBC); Homo sapiens): > 200 µM
